Results taken from patent publication US9096565B2, “Inhibitors of histone deacetylase” (MethylGene Inc., priority 2007, dated 2015).

Biological target: one or more of HDAC-4, HDAC-5, HDAC-6, HDAC-7, HDAC-8, HDAC-9, HDAC-10 and HDAC-11
Experiment: Inhibition of histone deacetylase enzymatic activity (summary statement over isoforms)
Format: biochemical
Conditions: Table 3, selected examples; HDAC isoform not given
In short: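 Activity was measured as deacetylation of the fluorogenic substrate Boc-Lys(trifluoroacetyl)-AMC over 20-30 min at 37 °C, after a 5 min room-temperature preincubation of enzyme with compound. Trypsin (1 mg/mL) with a reference HDAC inhibitor ended the reaction.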

| Compound | IC50 [nM] |
| --- | --- |
| CCc1ccc(-c2ccc(C(C(=O)NO)c3ccccc3)cc2)cc1 (centres unmarked) [Compound 2-111, 2-(4′-ethylbiphenyl-4-yl)-N-hydroxy-2-phenylacetamide] | < 1000 |
| O=C(CCC1CCCCC1)Nc1cccc(C(C(=O)NO)c2ccccc2)c1 (centres unmarked) [Compound 2-71, 3-cyclohexyl-N-(3-(2-(hydroxyamino)-2-oxo-1-phenylethyl)phenyl)propanamide] | < 1000 |
| O=C(NO)C(c1ccccc1)N1CCC(Cc2ccccc2)CC1 (centres unmarked) [Compound 1-9, 2-(4-benzylpiperidin-1-yl)-N-hydroxy-2-phenylacetamide] | < 1000 |
| O=C(NO)C(c1ccccc1)N1CCC(c2nc(-c3cccnc3)no2)CC1 (centres unmarked) [Compound 2-43, N-hydroxy-2-phenyl-2-(4-(3-(pyridin-3-yl)-1,2,4-oxadiazol-5-yl)piperidin-1-yl)acetamide] | < 1000 |
| CCCS(=O)(=O)Nc1ccc(C(C(=O)NO)c2ccccc2)cc1 (centres unmarked) [Compound 2-86, N-hydroxy-2-phenyl-2-(4-(propylsulfonamido)phenyl)acetamide] | < 1000 |
| O=C(NO)C(Sc1nc2ccccc2s1)c1ccccc1 (centres unmarked) [Compound 1-24, 2-(benzo[d]thiazol-2-ylthio)-N-hydroxy-2-phenylacetamide] | < 1000 |
| O=C(NO)C(c1ccccc1)c1ccc(NCc2ccncc2)cc1 (centres unmarked) [Compound 2-80, N-hydroxy-2-phenyl-2-(4-(pyridin-4-ylmethylamino)phenyl)acetamide] | < 1000 |
| O=C(NO)C(c1ccccc1)N1CCC(c2c[nH]c3ccccc23)CC1 (centres unmarked) [Compound 1-34, 2-(4-(1H-indol-3-yl)piperidin-1-yl)-N-hydroxy-2-phenylacetamide] | < 1000 |
| O=C(NO)C(c1ccccc1)c1cccc(C#Cc2ccccc2)c1 (centres unmarked) [Compound 2-94, N-hydroxy-2-phenyl-2-(3-(phenylethynyl)phenyl)acetamide] | 1000 to 15000 |
| O=C(NO)C(c1ccc2c(c1)CCO2)c1ccc2c(c1)CCO2 [Compound 1-8, 2,2-bis(2,3-dihydrobenzofuran-5-yl)-N-hydroxyacetamide] | < 1000 |
| O=C(Nc1cccc(C(C(=O)NO)c2ccccc2)c1)c1ccccc1 (centres unmarked) [Compound 2-56, N-(3-(2-(hydroxyamino)-2-oxo-1-phenylethyl)phenyl)benzamide] | 1000 to 15000 |
| O=C(NO)C(c1ccccc1)c1ccc(NCC2CCCCC2)cc1 (centres unmarked) [Compound 2-82, 2-(4-(cyclohexylmethylamino)phenyl)-N-hydroxy-2-phenylacetamide] | < 1000 |
| O=C(NO)C(c1ccccc1)c1ccc(NS(=O)(=O)c2cccs2)cc1 (centres unmarked) [Compound 2-90, N-hydroxy-2-phenyl-2-(4-(thiophene-2-sulfonamido)phenyl)acetamide] | < 1000 |
| CC(C)c1ccc(SC(C(=O)NO)c2ccccc2)cc1 (centres unmarked) [Compound 2-21, N-hydroxy-2-(4-isopropylphenylthio)-2-phenylacetamide] | 1000 to 15000 |
| O=C(NO)C(c1ccccc1)N1C[C@@H]2C[C@H]1CO2 (stereo partly drawn) [Compound 5-71, 2-((1S,4S)-2-oxa-5-azabicyclo[2.2.1]heptan-5-yl)-N-hydroxy-2-phenylacetamide] | 1000 to 15000 |
| O=C(NO)C(c1ccccc1)c1cccc(NCc2ccc(F)cc2)c1 (centres unmarked) [Compound 2-50, 2-(3-(4-fluorobenzylamino)phenyl)-N-hydroxy-2-phenylacetamide] | < 1000 |
| O=C(NO)C(c1ccccc1)c1ccc(N2CCNCC2)cc1 (centres unmarked) [Compound 5-86, N-hydroxy-2-phenyl-2-(4-(piperazin-1-yl)phenyl)acetamide] | < 1000 |
| O=C(Nc1ccc(C(C(=O)NO)c2ccccc2)cc1)C1CCCCC1 (centres unmarked) [Compound 2-57, N-(4-(2-(hydroxyamino)-2-oxo-1-phenylethyl)phenyl)cyclohexanecarboxamide] | < 1000 |
| Cc1cc(C(=O)Nc2ccc(C(C(=O)NO)c3ccccc3)cc2)c(C)o1 (centres unmarked) [Compound 2-63, N-(4-(2-(hydroxyamino)-2-oxo-1-phenylethyl)phenyl)-2,5-dimethylfuran-3-carboxamide] | < 1000 |
| Cn1cnc(S(=O)(=O)N2CCN(C(C(=O)NO)c3ccccc3)CC2)c1 (centres unmarked) [Compound 2-38, N-hydroxy-2-(4-(1-methyl-1H-imidazol-4-ylsulfonyl)piperazin-1-yl)-2-phenylacetamide] | < 1000 |

Continued, values first:

| IC50 [nM] | Compound |
| --- | --- |
| 1000 to 15000 | O=C(NO)C(c1ccccc1)N1CCc2[nH]c3ccc(F)cc3c2C1 (centres unmarked) [Compound 5-16, 2-(8-fluoro-3,4-dihydro-1H-pyrido[4,3-b]indol-2(5H)-yl)-N-hydroxy-2-phenylacetamide] |
| < 1000 | O=C(NO)C1c2ccccc2N(Cc2ccccc2)c2ccccc21 [Compound 5-56, 10-benzyl-N-hydroxy-9,10-dihydroacridine-9-carboxamide] |
| < 1000 | O=C(NO)C(c1ccc(F)cc1)c1cccc(-c2ccccc2)c1 (centres unmarked) [Compound 5-89, 2-(biphenyl-3-yl)-2-(4-fluorophenyl)-N-hydroxyacetamide] |
| < 1000 | O=C(NO)C(c1ccccc1)c1ccc(OCCN2CCOCC2)cc1 (centres unmarked) [Compound 5-40, N-hydroxy-2-(4-(2-morpholinoethoxy)phenyl)-2-phenylacetamide] |
| < 1000 | COc1ncc(-c2ccc(C(C(=O)NO)c3ccccc3)cc2)cn1 (centres unmarked) [Compound 5-92, N-hydroxy-2-(4-(2-methoxypyrimidin-5-yl)phenyl)-2-phenylacetamide] |
| 1000 to 15000 | Cc1ccc(OC(C(=O)NO)c2ccccc2)c2c1CCC2 (centres unmarked) [Compound 7-35, N-hydroxy-2-(7-methyl-2,3-dihydro-1H-inden-4-yloxy)-2-phenylacetamide] |
| 1000 to 15000 | CCC(=O)ONC(=O)C(c1ccccc1)c1ccc(N2CCOCC2)cc1 (centres unmarked) [Compound 5-114, 2-(4-morpholinophenyl)-2-phenyl-N-(propionyloxy)acetamide] |
| 1000 to 15000 | O=C(NO)C(c1ccc(N2CCOCC2)cc1)c1cccc(OC(F)(F)F)c1 (centres unmarked) [Compound 6-20, N-hydroxy-2-(4-morpholinophenyl)-2-(3-(trifluoromethoxy)phenyl)acetamide] |
| < 1000 | CN(C)CCN1CCN(c2ccc(C(C(=O)NO)c3ccccc3)cc2)CC1 (centres unmarked) [Compound 5-94, 2-(4-(4-(2-(dimethylamino)ethyl)piperazin-1-yl)phenyl)-N-hydroxy-2-phenylacetamide] |
| < 1000 | CCN(CC)c1ccc(C(C(=O)NO)c2cccc(F)c2)cc1 (centres unmarked) [Compound 6-37] |
| < 1000 | Cc1cc(C)cc(COc2cccc(C(C(=O)NO)c3ccccc3)c2)c1 (centres unmarked) [Compound 3-35, 2-(3-(3,5-dimethylbenzyloxy)phenyl)-N-hydroxy-2-phenylacetamide] |
| < 1000 | O=C(NO)C(c1ccccc1)c1ccc(OC2CCN(CC3CC3)CC2)cc1 (centres unmarked) [Compound 5-130, 2-(4-(1-(cyclopropylmethyl)piperidin-4-yloxy)phenyl)-N-hydroxy-2-phenylacetamide] |
| < 1000 | O=C(NO)C(c1ccccc1)c1nnc(COc2ccccc2)s1 (centres unmarked) [Compound 5-53, N-hydroxy-2-(5-(phenoxymethyl)-1,3,4-thiadiazol-2-yl)-2-phenylacetamide] |
| < 1000 | O=C(NO)C(Oc1cccc2ccccc12)c1ccccc1 (centres unmarked) [Compound 7-31, N-hydroxy-2-(naphthalen-1-yloxy)-2-phenylacetamide] |
| 1000 to 15000 | CSc1ccc(OC(C(=O)NO)c2ccccc2)cc1 (centres unmarked) [Compound 7-18, N-hydroxy-2-(4-(methylthio)phenoxy)-2-phenylacetamide] |
| 1000 to 15000 | O=C(NO)C(c1ccccc1)c1cccc(OCC2CC2)c1 (centres unmarked) [Compound 3-25, 2-(3-(cyclopropylmethoxy)phenyl)-N-hydroxy-2-phenylacetamide] |
| 1000 to 15000 | O=C(NO)C(c1ccccc1)c1cccc(OCc2cccc(OC(F)(F)F)c2)c1 (centres unmarked) [Compound 3-87, N-hydroxy-2-phenyl-2-(3-(3-(trifluoromethoxy)benzyloxy)phenyl)acetamide] |
| < 1000 | O=C(NO)C(c1ccccc1)c1cccc(OC/C=C/c2ccccc2)c1 (centres unmarked) [Compound 3-9, (E)-2-(3-(cinnamyloxy)phenyl)-N-hydroxy-2-phenylacetamide] |
| < 1000 | CC(=O)Nc1ccc(C(C(=O)NO)c2ccccc2)cc1 (centres unmarked) [Compound 3-13, 2-(4-acetamidophenyl)-N-hydroxy-2-phenylacetamide] |
| < 1000 | O=C(NO)C(c1ccccc1)c1ccc(C#CCN2CCS(=O)(=O)CC2)cc1 (centres unmarked) [Compound 5-91] |
| < 1000 | CCOc1ccc(C(C(=O)NO)c2ccccc2)cc1 (centres unmarked) [Compound 3-44, 2-(4-ethoxyphenyl)-N-hydroxy-2-phenylacetamide] |
| < 1000 | O=C(NO)C(c1ccccc1)c1ccc(N2CCCC2=O)cc1 (centres unmarked) [Compound 5-106, N-hydroxy-2-(4-(2-oxopyrrolidin-1-yl)phenyl)-2-phenylacetamide] |
| < 1000 | O=C(NO)C(c1ccccc1)c1ccc(OCCOCc2ccccc2)cc1 (centres unmarked) [Compound 3-68, 2-(4-(2-(benzyloxy)ethoxy)phenyl)-N-hydroxy-2-phenylacetamide] |
| < 1000 | O=C(NO)C(c1ccccc1)c1ccc(CCCN2CCS(=O)(=O)CC2)cc1 (centres unmarked) [Compound 5-95] |
| < 1000 | COc1ccc2sc(SC(C(=O)NO)c3ccccc3)nc2c1 (centres unmarked) [Compound 5-50, N-hydroxy-2-(5-methoxybenzo[d]thiazol-2-ylthio)-2-phenylacetamide] |
| < 1000 | O=C(NO)C(c1ccc(F)cc1)c1ccc(N2CCOCC2)cc1 (centres unmarked) [Compound 5-90, 2-(4-fluorophenyl)-N-hydroxy-2-(4-morpholinophenyl)acetamide] |
| < 1000 | O=C(NO)C(c1ccccc1)c1ccc(N2CCC(N3CCCC3)CC2)cc1 (centres unmarked) [Compound 3-83, N-hydroxy-2-phenyl-2-(4-(4-(pyrrolidin-1-yl)piperidin-1-yl)phenyl)acetamide] |
| < 1000 | O=C(NO)C(c1ccc(N2CCOCC2)cc1)c1cccc(F)c1 (centres unmarked) [Compound 5-118, 2-(3-fluorophenyl)-N-hydroxy-2-(4-morpholinophenyl)acetamide] |
| 1000 to 15000 | O=C(NO)C1(c2ccc(F)cc2)CCCCC1 [Compound 5-119, 1-(4-fluorophenyl)-N-hydroxycyclohexanecarboxamide] |
| 1000 to 15000 | O=C(NO)C(Sc1ncccn1)c1ccccc1 (centres unmarked) [Compound 6-29, N-hydroxy-2-phenyl-2-(pyrimidin-2-ylthio)acetamide] |
